Test results taken from patent US10617675B2, “Hepatitis C virus inhibitors” (BRISTOL-MYERS SQUIBB COMPANY, priority 2015, dated 2020).
pEC50: −log10 of the molar value. Like-named read-outs stand apart in the source and are kept apart here.

How the values were obtained:
HCV = assay: Relative (synergistic) activity of separated diastereomers; format: cell-based, Hepatitis C virus; settings: comparison within the set of three diastereomers; first eluting isomer
[1] = system: HCV genotype-1a variant with glutamine 30 changed to glutamate in the NS5A protein; settings: genotype-1a Q30E NS5A variant, cited from earlier work
[2] = system: HCV genotype-1a variant with glutamine 30 changed to glutamate in the NS5A protein; format: cell-based, Hepatitis C virus; settings: genotype-1a Q30E; BMS-790052 titrated with 200 nM P-55 versus singly
Source text: The NS5A synergistic inhibitory effect of test compounds can be determined using various amounts of an NS5A-targeting compound with titration of a second compound of interest. […] The test compound can be chosen from compounds listed above or from others present in the literature.

| SMILES | activity relative to the other separated diastereomers (HCV) | pEC50 ([1]; P-55 fixed at 200 nM, read-out: EC50 of BMS-790052 in the presence of a fixed amount of P-55) | pEC50 ([1]; single agent, read-out: EC50, compound titrated singly) | reciprocal synergistic inhibitory effect for the combination [2] |
| --- | --- | --- | --- | --- |
| CN(C)C(=O)OC(C)(C(=O)N[C@H](c1ncc(-c2ccc(-c3ccc(-c4cnc([C@@H](NC(=O)C(C)(OC(=O)N(C)C)C(C)(C)CF)C(C)(C)C)[nH]4)cc3)cc2)[nH]1)C(C)(C)C)C(C)(C)CF (single isomer, unassigned) [Example Y1] | most active of the set | – | – | – |
| CC(C)(C)[C@H](NC(=O)C1(CO)OC2CCC1CC2)c1nc(-c2ccc(-c3ccc(-c4c[nH]c([C@@H](NC(=O)C5(CO)OC6CCC5CC6)C(C)(C)C)n4)cc3)cc2)c[nH]1 (single isomer, unassigned) [Example Y14] | most active isomer | – | – | – |
| COC(=O)N[C@H](C(=O)N1CCC[C@H]1c1nc(-c2ccc(-c3ccc(-c4c[nH]c([C@@H]5CCCN5C(=O)[C@@H](NC(=O)OC)C(C)C)n4)cc3)cc2)c[nH]1)C(C)C [BMS-790052] | – | ~8.70 | ~6.70 | ~100 fold |
| CC(C)(C)[C@H](NC(=O)C(C)(OC(=O)N1CCC1)C1(C)CC1)c1nc(-c2ccc(-c3ccc(-c4c[nH]c([C@@H](NC(=O)C(C)(OC(=O)N5CCC5)C5(C)CC5)C(C)(C)C)n4)cc3)cc2)c[nH]1 (stereo partly shown) [Example Y19a] | most synergistically active of the three | – | – | – |
| COC(=O)N1CC(F)(F)CC1(C)C(=O)N[C@H](c1nc2ccc(-c3cnc(-c4ccc5nc([C@@H](NC(=O)C6(C)CC(F)(F)CN6C(=O)OC)C(C)(C)C)[nH]c5c4)cn3)cc2[nH]1)C(C)(C)C (stereo partly shown) [Example Y20] | most synergistically active of the three | – | – | – |
